Assay results: patent publication US20100137394A1, “PYRAZOLE INHIBITORS OF WNT SIGNALING” (Grenentech, Inc., priority 2007, published 2010)
pIC50: −log10 of the molar value.

Test system: Wnt pathway signaling
Assay: Wnt Assay (Super8xTopflash reporter assay)
Format: cell-based
Conditions: 10T1/2 Super8xTopflash reporter cell line, Wnt3a in medium, luciferase signal read after 20-24 h; read-out: IC50, inhibition of Wnt pathway signaling activity
Procedure: 10T1/2 Super8xTopflash reporter cell line was generated by stable transfection of a Super8xTopflash reporter plasmid containing 8 tandem repeats of TCF4 binding sites upstream of Luciferase gene. Cells were seeded at 20 K/well density (in normal growth medium with 10% FBS and 0.4 mg/ml G418) in white 96-well plates with clear bottom (BD Falcon Microtest Optilux plate, Ref. 353947) and grown for 20-24 hours. Fesh growth medium was prepared without G418 and with appropriate Wnt3a concentration (concentration that gave 40-50% of maximum activation based on the dose-response curve performed for each new batch of protein; typically ˜0.1 ug/ml).
Old medium was removed from the 96-well plate, which was gently blotted on paper towel, then all relevant wells were replenished with fresh medium containing Wnt (100 ul/well).
The wells with highest compound concentrations (usually 10 or 30 uM) were filled separately with 150 ul of prepared medium containing both Wnt3a and the test compounds. Using a multichannel pipetman, 50 ul was drawn from these wells and dispensed and mixed gently into the next row of wells to achieve 1:3 dilution of compounds. […]
After 20-24 h the cells were lysed and the luciferase signal was read using Perkin Elmer luclite assay system, Cat. #6016911). […] Approximately 15 min later the plates were read on a TopCount machine.

pIC50: 6.66
SMILES: COc1ccc(CC(=O)N2CCC(c3ccc(NS(C)(=O)=O)cc3)=N2)cc1OC [compound 12]
